# Source: patent US12498382B2, “Biomarkers for vitiligo” (INCYTE CORPORATION, priority 2019, dated 2025)
# System: HaCaT cells
# Assay: Concentrations of inflammatory mediators produced by HaCaT cells stimulated with TNFα and IFNγ in presence/absence of JAK inhibitors (ProCarta)
# Format: cell-based, human
# Details: TNFα 25 ng/mL + IFNγ 25 ng/mL
# Method: After 48 hours, cell culture media was removed from 24 well plates and replaced with 250 uL of media containing serial diluted drug, then incubated for 15 minutes at 37° C./5% CO2. […] The final concentration of Recombinant Human Interferon gamma and Recombinant Human Tumor Necrosis Factor alpha was 25 ng/mL of each cytokine. Cytokine stimulation added to wells containing drug brought the final concentrations for each drug treatment to 25 nM, 50 nM, 100 nM, and 200 nM. Treated plates were mixed by gentle agitation for 30 seconds then incubated for 24 hours at 37° C./5% CO2. At the end of the 24 hour incubation media was immediately removed from each plate.
# Media was incubated with antibody conjugated beads designed to bind to the epitopes of specific target proteins and identify the bound protein through the bead's distinctive spectral pattern. Biotinylated detection antibodies, designed to bind to different epitopes of the same target proteins, and Streptavidin-PE are added to assay plates to quantify the amount of the target proteins. Assay plates were read on the Luminex 200 and data were expressed as Net Median Fluorescence Intensity. […] The concentration of each protein was extrapolated from the antigen standard curve and concentrations were expressed as pg/mL (Table 15).
structure (smiles),measurement,setting,value
N#CCC1(n2cc(-c3ncnc4[nH]ccc34)cn2)CN(C2CCN(C(=O)c3ccnc(C(F)(F)F)c3F)CC2)C1 [Cpc B],BDNF concentration,drug 25 nM,4.05 ± 0.19 pg/mL
same,EGF concentration,drug 25 nM,1.76 ± 0.17 pg/mL
same,Eotaxin concentration,drug 25 nM,10.22 ± 0.15 pg/mL
same,FGF-2 concentration,drug 25 nM,20.63 ± 1.49 pg/mL
same,GM-CSF concentration,drug 25 nM,130.13 ± 2.13 pg/mL
same,GRO alpha concentration,drug 25 nM,547.38 ± 31.41 pg/mL
same,HGF concentration,drug 25 nM,14.15 ± 0.3 pg/mL
same,IFN alpha concentration,drug 25 nM,0.24 ± 0.02 pg/mL
same,IFN gamma concentration,drug 25 nM,35023.68 ± 10759.49 pg/mL
same,IL1RA concentration,drug 25 nM,5944.59 ± 264.97 pg/mL
same,IL1 alpha concentration,drug 25 nM,7.34 ± 0.31 pg/mL
same,IL1 beta concentration,drug 25 nM,9.53 ± 0.3 pg/mL
same,IL2 concentration,drug 25 nM,33.62 ± 1.88 pg/mL
same,IL4 concentration,drug 25 nM,6.74 ± 1.65 pg/mL
same,IL5 concentration,drug 25 nM,27.31 ± 1.32 pg/mL
same,IL6 concentration,drug 25 nM,749.64 ± 32.94 pg/mL
same,IL7 concentration,drug 25 nM,2.14 ± 0.12 pg/mL
same,IL8 concentration,drug 25 nM,2837.03 ± 135.03 pg/mL
same,IL9 concentration,drug 25 nM,4.55 ± 0.85 pg/mL
same,IL10 concentration,drug 25 nM,0.87 ± 0.06 pg/mL
same,IL12p70 concentration,drug 25 nM,2.01 ± 0.21 pg/mL
same,IL13 concentration,drug 25 nM,2.79 ± 0.33 pg/mL
same,IL15 concentration,drug 25 nM,3.3 ± 0.93 pg/mL
same,IL17A concentration,drug 25 nM,4.6 ± 0.5 pg/mL
same,IL18 concentration,drug 25 nM,162.16 ± 4.98 pg/mL
same,IL21 concentration,drug 25 nM,2.66 ± 0.22 pg/mL
same,IL22 concentration,drug 25 nM,8.69 ± 0.42 pg/mL
same,IL23 concentration,drug 25 nM,7.28 ± 0.16 pg/mL
same,IL27 concentration,drug 25 nM,8.03 ± 1.71 pg/mL
same,IL31 concentration,drug 25 nM,3.6 ± 0.28 pg/mL
same,IP-10/CXCL10 concentration,drug 25 nM,4068.98 ± 507.12 pg/mL
same,LIF concentration,drug 25 nM,68.82 ± 2.51 pg/mL
same,MCP1 concentration,drug 25 nM,29762.04 ± 13226.23 pg/mL
same,MIP1 alpha concentration,drug 25 nM,103.81 ± 3.29 pg/mL
same,MIP1 beta concentration,drug 25 nM,319.77 ± 6.92 pg/mL
same,PDGF-BB concentration,drug 25 nM,5.19 ± 0.15 pg/mL
same,PIGF-1 concentration,drug 25 nM,56.69 ± 2.37 pg/mL
same,RANTES concentration,drug 25 nM,203.77 ± 12.55 pg/mL
same,SCF concentration,drug 25 nM,4.33 ± 0.18 pg/mL
same,SDF-1 alpha concentration,drug 25 nM,3430.87 ± 111.52 pg/mL
same,TNF alpha concentration,drug 25 nM,10574.99 ± 753.02 pg/mL
same,TNF beta concentration,drug 25 nM,4.91 ± 0.79 pg/mL
same,VEGF-A concentration,drug 25 nM,1249.75 ± 44.89 pg/mL
same,VEGF-D concentration,drug 25 nM,9.22 ± 0.87 pg/mL
same,bNGF concentration,drug 25 nM,7.7 ± 0.55 pg/mL
same,BDNF concentration,drug 50 nM,4.04 ± 0.24 pg/mL
same,EGF concentration,drug 50 nM,1.67 ± 0.15 pg/mL
same,Eotaxin concentration,drug 50 nM,9.92 ± 0.2 pg/mL
same,FGF-2 concentration,drug 50 nM,19.94 ± 1.49 pg/mL
same,GM-CSF concentration,drug 50 nM,128.05 ± 2.9 pg/mL
same,GRO alpha concentration,drug 50 nM,544.63 ± 38.3 pg/mL
same,HGF concentration,drug 50 nM,13.65 ± 0.53 pg/mL
same,IFN alpha concentration,drug 50 nM,0.26 ± 0 pg/mL
same,IFN gamma concentration,drug 50 nM,28977.92 ± 7400.61 pg/mL
same,IL1RA concentration,drug 50 nM,5840.44 ± 314.35 pg/mL
same,IL1 alpha concentration,drug 50 nM,7.06 ± 0.37 pg/mL
same,IL1 beta concentration,drug 50 nM,8.96 ± 0.43 pg/mL
same,IL2 concentration,drug 50 nM,31.96 ± 1.47 pg/mL
same,IL4 concentration,drug 50 nM,5.74 ± 1.1 pg/mL
same,IL5 concentration,drug 50 nM,25.5 ± 1.65 pg/mL
same,IL6 concentration,drug 50 nM,674.21 ± 27.15 pg/mL
same,IL7 concentration,drug 50 nM,1.9 ± 0.12 pg/mL
same,IL8 concentration,drug 50 nM,2862.21 ± 240.57 pg/mL
same,IL9 concentration,drug 50 nM,4.13 ± 0.43 pg/mL
same,IL10 concentration,drug 50 nM,0.85 ± 0.05 pg/mL
same,IL12p70 concentration,drug 50 nM,1.68 ± 0.21 pg/mL
same,IL13 concentration,drug 50 nM,2.73 ± 0.23 pg/mL
same,IL15 concentration,drug 50 nM,2.71 ± 0.65 pg/mL
same,IL17A concentration,drug 50 nM,4.09 ± 0.43 pg/mL
same,IL18 concentration,drug 50 nM,153.4 ± 3.46 pg/mL
same,IL21 concentration,drug 50 nM,2.45 ± 0.29 pg/mL
same,IL22 concentration,drug 50 nM,8.9 ± 0^ pg/mL
same,IL23 concentration,drug 50 nM,7.43 ± 0 pg/mL
same,IL27 concentration,drug 50 nM,6.95 ± 0.83 pg/mL
same,IL31 concentration,drug 50 nM,3.22 ± 0.38 pg/mL
same,IP-10/CXCL10 concentration,drug 50 nM,3872.74 ± 295.01 pg/mL
same,LIF concentration,drug 50 nM,67.89 ± 3.08 pg/mL
same,MCP1 concentration,drug 50 nM,27471.13 ± 12271.13 pg/mL
same,MIP1 alpha concentration,drug 50 nM,100.64 ± 4.66 pg/mL
same,MIP1 beta concentration,drug 50 nM,318.84 ± 8.17 pg/mL
same,PDGF-BB concentration,drug 50 nM,5.28 ± 0.18 pg/mL
same,PIGF-1 concentration,drug 50 nM,53.92 ± 2.81 pg/mL
same,RANTES concentration,drug 50 nM,198.35 ± 15.1 pg/mL
same,SCF concentration,drug 50 nM,4.16 ± 0.18 pg/mL
same,SDF-1 alpha concentration,drug 50 nM,3356.32 ± 136.22 pg/mL
same,TNF alpha concentration,drug 50 nM,11776.9 ± 1658.47 pg/mL
same,TNF beta concentration,drug 50 nM,4.13 ± 0.5 pg/mL
same,VEGF-A concentration,drug 50 nM,1242.76 ± 50.39 pg/mL
same,VEGF-D concentration,drug 50 nM,9.72 ± 0.75 pg/mL
same,bNGF concentration,drug 50 nM,7.09 ± 0.71 pg/mL
same,BDNF concentration,drug 100 nM,4.06 ± 0.26 pg/mL
same,EGF concentration,drug 100 nM,1.56 ± 0.2 pg/mL
same,Eotaxin concentration,drug 100 nM,10.09 ± 0.19 pg/mL
same,FGF-2 concentration,drug 100 nM,20.42 ± 1.5 pg/mL
same,GM-CSF concentration,drug 100 nM,133.06 ± 4.24 pg/mL
same,GRO alpha concentration,drug 100 nM,568.49 ± 35.18 pg/mL
same,HGF concentration,drug 100 nM,14.41 ± 0.55 pg/mL
same,IFN alpha concentration,drug 100 nM,0.26 ± 0 pg/mL
same,IFN gamma concentration,drug 100 nM,29276.66 ± 7697.74 pg/mL
same,IL1RA concentration,drug 100 nM,5953.24 ± 309.78 pg/mL
same,IL1 alpha concentration,drug 100 nM,7 ± 0.41 pg/mL
same,IL1 beta concentration,drug 100 nM,8.66 ± 0.41 pg/mL
same,IL2 concentration,drug 100 nM,31.33 ± 1.43 pg/mL
same,IL4 concentration,drug 100 nM,5.78 ± 0.72 pg/mL
same,IL5 concentration,drug 100 nM,26.52 ± 1.54 pg/mL
same,IL6 concentration,drug 100 nM,643.8 ± 27.14 pg/mL
same,IL7 concentration,drug 100 nM,2.12 ± 0.14 pg/mL
same,IL8 concentration,drug 100 nM,2980.9 ± 173.36 pg/mL
same,IL9 concentration,drug 100 nM,4.13 ± 0.43 pg/mL
same,IL10 concentration,drug 100 nM,0.88 ± 0.06 pg/mL
same,IL12p70 concentration,drug 100 nM,1.77 ± 0.18 pg/mL
same,IL13 concentration,drug 100 nM,2.55 ± 0.33 pg/mL
